Data set [1] can be described thus: Inhibition of hedgehog signaling pathway in mouse NIH/3T3 Light2 cells by Gli-luciferase reporter gene assay. It counts as cell-based. The note with it: NIH3T3. For orientation: In a reporter assay the amount or activity of a reporter protein is the signal.
Data set [2] concerns Medulloblastoma cell. The data set can be described thus: Antiproliferative activity against Ptch+/- and p53-/- mouse medulloblastoma cells after 36 hrs by Brdu incorporation assay. In kind it is functional, cell-based.
The species entered for data set [3] is Mus musculus. The data set can be described thus: Potency index, ratio of vismodegib IC50 to compound IC50 for hedgehog signaling pathway in mouse NIH/3T3 Light2 cells. In kind it is cell-based.
The subject of data set [4] is Medulloblastoma cell. The data set can be described thus: Antitumor activity against Ptch+/- and p53-/- mouse medulloblastoma cells allografted in athymic nude mouse assessed as tumor growth inhibition at 50 mg/kg, po bid administered daily via gavage for 13 days. It counts as functional, organism-based.
In data set [5] the test system is Medulloblastoma cell. The data set can be described thus: Antitumor activity against Ptch+/- and p53-/- mouse medulloblastoma cells allografted in athymic nude mouse assessed as tumor growth inhibition at 100 mg/kg, po qd administered daily via gavage for 13 days. It counts as functional, organism-based.
A short description of data set [6]: AUC (0 to infinity) in Sprague-Dawley rat at 2 mg/kg, iv administered as single dose. In kind it is ADME, organism-based. Also noted: dose 2 mg/kg, time infinity, route intravenous. To be noted: in vivo.
Data set [7] in a line: Clearance in Sprague-Dawley rat at 2 mg/kg, iv administered as single dose. To be noted: in vivo. In kind it is ADME, organism-based.
Data set [8] in a line: Volume of distribution at steady state in Sprague-Dawley rat at 2 mg/kg, iv administered as single dose. In kind it is ADME, organism-based. The note with it: in vivo, read-out: Vdss.
Data set [9] can be described thus: Half life in Sprague-Dawley rat at 2 mg/kg, iv administered as single dose. The note with it: in vivo. In kind it is ADME, organism-based.
Data set [10] can be described thus: AUC (0 to infinity) in Sprague-Dawley rat at 10 mg/kg, po administered as single dose. Also noted: dose 10 mg/kg, time infinity, route oral. To be noted: in vivo. It counts as ADME, organism-based.
The nature of data set [11]: Cmax in Sprague-Dawley rat at 10 mg/kg, po administered as single dose. It counts as ADME, organism-based. Set-up: dose 10 mg/kg, route oral. The note with it: in vivo.
Data set [12] can be described thus: Tmax in Sprague-Dawley rat at 10 mg/kg, po administered as single dose. In kind it is ADME, organism-based. To be noted: in vivo.
Data set [13] in a line: Oral bioavailability in Sprague-Dawley rat at 10 mg/kg administered as single dose. In kind it is ADME, organism-based. The note with it: in vivo.

pIC50: −log10 of the molar value. Active and inactive are the calls of the source.

What is called pIC50 is −log10 of the IC50, conventionally taken in molar units. With `Cc1ccc(-c2nnc(N3CC[C@@H](NC(=O)c4ccc(F)cc4C(F)(F)F)C3)c3ccccc23)cc1`, the negative logarithm of the IC50 (pIC50) in [1] is 8.94; in data set [2], 7.70.

`Cn1nccc1-c1nnc(N2CC(NC(=O)c3ccc(F)cc3C(F)(F)F)C2)c2ccccc12` showed a negative-log IC50 (pIC50) in data set [1] below 6.00.

`Cn1nccc1-c1nnc(N2CC3(CN(C(=O)c4ccc(F)cc4C(F)(F)F)C3)C2)c2ccccc12` had a pIC50 in data set [1] of 6.35.

Consider `Cc1ccc(-c2nnc(N3CC[C@H](NC(=O)c4ccc(F)cc4C(F)(F)F)C3)c3ccccc23)cc1`, for which the pIC50 in [1] is below 7.00.

In general, AUC(0-inf) refers to total exposure, with the tail of the curve extrapolated. By clearance is commonly meant the volume of plasma or blood freed of the substance per unit of time. A high value points to efficient removal. In general, half-life refers to the time needed for the level to fall by half in the phase considered. Lower therefore signals fast loss. By Cmax is commonly meant the highest concentration seen after dosing. One may read the Tmax as the time from dosing to the highest level. A word on the bioavailability: it is the share of a dose that reaches the circulation, judged against a reference dose that is usually intravenous. The low end stands for poor availability, the high end for good availability. Regarding `O=C(N[C@@H]1CCN(c2nnc(-c3ccc(CO)cc3)c3ccccc23)C1)c1ccc(F)cc1C(F)(F)F`, the pIC50 in data set [1] was 9.77; in data set [2], 7.61. In addition, the Ratio IC50 in [3] came out at 23. For the same molecule, the TGI result in [4] and in [5] was “Active” throughout. Also, the total exposure AUC(0-inf) in data set [6] stood at 0.88 µM·h; in data set [10], 0.33 µM·h. The same molecule showed a clearance in data set [7] of 74.7 mL/min/kg. Also, the Vd in data set [8] was 1.47 L/kg. For the same molecule, in [9], the half-life is 19.2 min. Moreover, the highest level in data set [11] (Cmax) was 480 nM. Also, in [12], the time to peak (Tmax) was determined as 15 min. Besides, in [13], the bioavailability stood at 7.4%.

The molecule `O=C(N[C@H]1CCN(c2nnc(-c3ccc(CO)cc3)c3ccccc23)C1)c1ccc(F)cc1C(F)(F)F` gave a pIC50 in data set [1] below 7.00.

`O=C(NC1CCN(c2nnc(-c3ccccc3Cl)c3ccccc23)C1)c1ccc(F)cc1C(F)(F)F` (racemic) had a negative logarithm of the IC50 (pIC50) in data set [1] of 8.19.

As to `Cn1nccc1Nc1nnc(N2CCC(NC(=O)c3ccc(F)cc3C(F)(F)F)C2)c2ccccc12` (racemic), the negative logarithm of the IC50 (pIC50) in data set [1] is below 7.00.

For `O=C(NC1CCN(c2nnc(-c3ccccc3)c3ccccc23)C1)c1ccc(F)cc1C(F)(F)F` (racemic), the pIC50 in [1] is 8.46.

In the case of `Cc1ccc(-c2nnc(N3CCC(NC(=O)c4ccc(F)cc4C(F)(F)F)C3)c3ccccc23)cc1` (racemic), the pIC50 in data set [1] was 9.06.

Molecule `N#Cc1ccc(-c2nnc(N3CCC(NC(=O)c4ccc(F)cc4C(F)(F)F)C3)c3ccccc23)cc1` (racemic) showed a pIC50 in data set [1] of 7.85.

`Cn1nccc1-c1nnc(N2CCCC(NC(=O)c3ccc(F)cc3C(F)(F)F)C2)c2ccccc12` (racemic) showed a pIC50 in data set [1] below 6.00.

In the case of `Cn1cc(-c2nnc(N3CCC(NC(=O)c4ccc(F)cc4C(F)(F)F)C3)c3ccccc23)cn1` (racemic), the pIC50 in [1] is below 7.00.

`Cn1nccc1-c1nnc(N2CCC(NC(=O)c3ccc(F)cc3C(F)(F)F)C2)c2ccccc12` (racemic) had a negative logarithm of the IC50 (pIC50) in [1] of 8.32.

The molecule `O=C(NC1CCN(c2nnc(-c3ccncc3)c3ccccc23)C1)c1ccc(F)cc1C(F)(F)F` (racemic) gave a pIC50 in data set [1] of 7.97.

`Cc1ccc(-c2nnc(N3CCC(N(C)C(=O)c4ccc(F)cc4C(F)(F)F)C3)c3ccccc23)cc1` (racemic) gave a pIC50 in [1] of 8.53.

The molecule `Cn1nccc1-c1nnc(NC2CCN(C(=O)c3ccc(F)cc3C(F)(F)F)C2)c2ccccc12` (racemic) had a negative-log IC50 (pIC50) in data set [1] below 6.00.

For `CN(C(=O)c1ccc(F)cc1C(F)(F)F)C1CCCN(c2nnc(-c3ccnn3C)c3ccccc23)C1` (racemic), the negative logarithm of the IC50 (pIC50) in [1] is below 6.00.

`O=C(NC1CCN(c2nnc(-c3ccc(Cl)cc3)c3ccccc23)C1)c1ccc(F)cc1C(F)(F)F` (racemic) gave a pIC50 in data set [1] of 7.96.

`O=C(NC1CCN(c2nnc(-c3ccc(CO)cc3)c3ccccc23)C1)c1ccc(F)cc1C(F)(F)F` (racemic) showed a pIC50 in data set [1] of 9.02.

Take `O=C(NC1CCN(c2nnc(NCc3ccccc3)c3ccccc23)C1)c1ccc(F)cc1C(F)(F)F` (racemic): the pIC50 in data set [1] is below 7.00.

In data set [1], `CN(C(=O)c1ccc(F)cc1C(F)(F)F)C1CCN(c2nnc(-c3ccc(CO)cc3)c3ccccc23)C1` (racemic) showed a negative logarithm of the IC50 (pIC50) of 8.87.

In turn, `CC(=O)c1ccc(-c2nnc(N3CCC(NC(=O)c4ccc(F)cc4C(F)(F)F)C3)c3ccccc23)cc1` (racemic) gave a pIC50 in data set [1] of 8.07.

On to `CN(C(=O)c1ccc(F)cc1C(F)(F)F)C1CCN(c2nnc(-c3ccnn3C)c3ccccc23)CC1` [TALADEGIB], for which the negative logarithm of the IC50 (pIC50) in data set [1] was 8.20; in [2] it was 7.36. The TGI result in data set [4] was “Active”.

For the molecule `CS(=O)(=O)c1ccc(C(=O)Nc2ccc(Cl)c(-c3ccccn3)c2)c(Cl)c1` [VISMODEGIB], the negative logarithm of the IC50 (pIC50) in data set [1] is 8.64; in [2] it was 7.52.

The values above are taken from ChEMBL document CHEMBL4118081, “Design, synthesis, and biological evaluation of optimized phthalazine derivatives as hedgehog signaling pathway inhibitors” (Eur J Med Chem, 2017).
